According to US20120101257A1, “PROCESSES FOR PREPARING AMINO-SUBSTITUTED GAMMA-LACTAMS” (UNIVERSITE DE MONTREAL, priority 2009, published 2012):
*1 amine or outer side, *2 acyl side, *3 side chain or, on linkers, in order; H or OH if unused. Where a SMILES comes first, the peptide text is derived from it. [ ]: non-standard residue; d: D form. The star is where a group is joined. X12 = CC(C)C[C@@H](NC(=N)[C@@H](CCC(=O)O)N1C[C@H](N[*:1])CC1=O)C(=O)[*:2]; X13 = C[C@@H](O)[C@H](C(=O)[*:2])N1C[C@H](N[*:1])CC1=O; X5 = O=C1C[C@@H](N[*:1])CN1[C@H](Cc1ccccc1)C(=O)[*:2]; X11 = N[C@@H]1CCN([C@H](Cc2ccc(O)cc2)C(=O)*)C1=O; X6 = NCCCC[C@@H](C(N)=O)N1CC[C@@H](N*)C1=O; X8 = NCCCC[C@@H](C(N)=O)N1C[C@H](N*)CC1=O; d(aThr) = C[C@@H](O)[C@@H](N)C(=O)O

Experiments:
TF-1 cells = test: [3H]thymidine incorporation, IL-1 induced TF-1 cell proliferation; assay type: cell-based, human; settings: for percentage of proliferation of TF-1 cells pre-treated with peptide: IL-1 induced, [3H]thymidine incorporation as in Example 59
Experimental: Human TF-1 cells (5×10^4 cells/well) were cultured in complete RPMI medium (GIBCO RPMI Medium 1640, Invitrogen) supplemented with GM-CSF (Granulocyte Macrophage Colony Stimulating Factor, 2 ng/ml; BD Biosource). Cells were deprived of growth factors for 18 h before preincubation with lactam peptide (1 μM) followed by treatment with IL-1β (10 or 25 ng/mL). After 24 h incubation at 37° C., [^3H]thymidine (1 μCi/mL; Amersham) was added and the cells were incubated for another 24 h. Cells were harvested, washed two times with PBS (10 mM Na2HPO4, 2 mM KH2PO4, 137 mM NaCl, 2.7 mM KCl; pH 7.4) and lysed with a 0.1 N NaOH/0.1% Triton X-100 solution. Scintillation cocktail (Fisher Scientific, 8 mL/sample) was added to the lysate, and after 3 h, radioactivity was measured (Beckman Multi-Purpose Scintillation Coulter Counter LS6500). Results were analyzed by one- or two-way ANOVA factoring for concentration or treatments. Postanova comparisons among means were performed using the Tukey-Framer method. Statistical significance was set at p<0.05. Data are presented as mean±SEM.

GHS-R1a receptor = target: T1, GHS-R1a receptor (Homo sapiens, UniProt Q92847); test: GHS-R1a receptor competitive binding assay with 125I-Ghrelin; settings: competition with 125I-Ghrelin; GHS-R1a transiently transfected in LLC-PK1 cells
T1 construct: expressed in transfected cells; host or cells: LLC-PK1 cells, transient calcium phosphate transfection, membrane preparation
T1 sequence (Q92847 whole entry): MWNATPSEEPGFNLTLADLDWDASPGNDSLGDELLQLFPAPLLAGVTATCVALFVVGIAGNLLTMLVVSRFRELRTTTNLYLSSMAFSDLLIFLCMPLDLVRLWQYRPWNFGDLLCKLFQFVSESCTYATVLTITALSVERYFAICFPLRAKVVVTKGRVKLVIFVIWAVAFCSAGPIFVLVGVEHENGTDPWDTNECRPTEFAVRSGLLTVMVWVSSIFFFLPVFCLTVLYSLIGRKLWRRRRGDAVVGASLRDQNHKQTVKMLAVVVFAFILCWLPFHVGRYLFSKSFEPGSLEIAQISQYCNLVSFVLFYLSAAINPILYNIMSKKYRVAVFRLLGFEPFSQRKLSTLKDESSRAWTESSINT
Experimental: Transfection LLC-PK1 cells were seeded at 1.5×10^6 cells/10 cm Petri-dishes and grown for 24 h in DMEM high-glucose (4.5 g/L) with 10% foetal bovine serum supplemented with penicillin (10,000 Units/ml) and streptomycin (10,000 ug/ml), and cultured at 37° C., with 5% CO2. The medium was then replaced for another 4-5 hours before CaPO4 calcium phosphate transfection. The DNA solution consists of 40 μg of DNA in a volume of 500 μl in which was added 500 μl of 2 mM Tris-HCl pH 8.0, 0.2 mM EDTA pH 8.0 containing 500 mM CaCl2, to a final volume of 1 ml. Then 1 ml of 50 mM Hepes, 280 mM NaCl, 1.5 mM Na2HPO4 pH to 7.1 (HBSS) was added by alterning 1 drop/2 air bubbles. The transfection mix reaction was incubated at RT for 30 min. After the incubation period, 1 ml of the mix was added to each plate and distributed evenly for incubation. The media was replaced with standard DMEM-high glucose media for another 24 h and cells were collected for membrane preparation.
Membrane preparation The experiment was carried out 4° C. unless specified. Cells were washed 2 times with PBS and with the homogenization buffer (HB) consisting of 50 mM Tris, 5 mM MgCl2, 2.5 mM EDTA, 30 ug/ml bacitracin at pH 7.3 and were scraped in Eppendorf tubes. Cells were lysed with 2 cycles of freeze/thawing using liquid nitrogen and were then centrifuged at 4° C. for 20 min at 10,000 g to collect the membranes. The membranes were re-suspended in a small volume of HB and aliquoted for storage at −80° C.
The non-specific binding was determined by excess of competitive ligand at 10^−5M. The reaction was carried out at RT for 1 h.

CD36 = target: T2, CD36 (Rattus norvegicus, UniProt Q07969); test: Competitive covalent CD36 binding assay using photoactivatable [125I]-Tyr-Bpa-Ala-Hexarelin; settings: for IC50: displacement of [125I]-Tyr-Bpa-Ala-Hexarelin, rat cardiac membranes
T2 construct: the rat cardiac membranes (200 μg) as source of CD36; from tissue; host or cells: Sprague Dawley rat heart (cardiac membranes)
T2 sequence (Q07969 whole entry): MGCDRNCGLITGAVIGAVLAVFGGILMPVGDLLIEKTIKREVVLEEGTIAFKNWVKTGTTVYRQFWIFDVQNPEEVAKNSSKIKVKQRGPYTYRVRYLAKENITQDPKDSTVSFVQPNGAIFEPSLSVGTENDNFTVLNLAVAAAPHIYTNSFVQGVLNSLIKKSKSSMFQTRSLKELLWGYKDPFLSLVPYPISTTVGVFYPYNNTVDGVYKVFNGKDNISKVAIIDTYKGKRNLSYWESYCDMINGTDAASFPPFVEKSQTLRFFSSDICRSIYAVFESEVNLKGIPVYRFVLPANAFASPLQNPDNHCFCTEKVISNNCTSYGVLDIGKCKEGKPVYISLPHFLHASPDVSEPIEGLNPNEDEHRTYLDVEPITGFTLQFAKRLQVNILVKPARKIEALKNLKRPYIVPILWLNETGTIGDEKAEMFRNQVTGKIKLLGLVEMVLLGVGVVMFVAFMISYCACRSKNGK
Experimental: Animal use was in accordance with the Institutional Animal Ethics Committee and the Canadian Council on Animal Care guidelines for the use of experimental animals. Sprague Dawley (275-350 g) rats were anaesthetized with sodium pentobarbital and their hearts were promptly removed in ice-cold saline and the cardiac membranes were prepared according to Harigaya and Schwartz.^lxvi
Nonspecific binding was defined as binding not displaced by 50 μM peptide. After an incubation period of 60 min at 22° C., membranes were submitted to UV irradiation at 365 nm for 15 min at 4° C. After centrifugation at 12 000 g for 15 min, the pellets were resuspended in 100 μl of sample buffer consisting of 62 mM Tris-HCl, pH 6.8, 2% SDS, 10% glycerol, 15% 2-mercapto-ethanol, and 0.05% bromophenol blue, and boiled for 5 min prior to being subjected to electrophoresis on 7.5% SDS-PAGE. The SDS/PAGE gels were fixed, colored in Coomassie Brilliant Blue R-250, dried, exposed to a storage phosphor intensifying screen (Amersham Biosciences), and analysed by using a Typhoon PhosphorImager (Amersham Biosciences) and ImageQuant 5.0 software to establish competition curves.

[1] = lactam peptide 1 μM, IL-1β 10 or 25 ng/mL

IC50 (GHS-R1a receptor) [µM]	IC50 (CD36) [µM]	Compound	further results
2.82	17.3	NCCCC[C@H](NC(=O)[C@H](Cc1ccccc1)NC(=O)[C@H](Cc1c[nH]c2ccccc12)N1CC[C@@H](NC(=O)[C@@H](Cc2c[nH]c3ccccc23)NC(=O)[C@@H](N)Cc2c[nH]cn2)C1=O)C(N)=O [Compound 62, His-D-Trp-(R)-Agl-Trp-D-Phe-Lys-NH2]	–
> 10	> 10	C[C@H](NC(=O)[C@@H](Cc1c[nH]c2ccccc12)NC(=O)[C@@H](N)Cc1c[nH]cn1)C(=O)N[C@@H]1CCN([C@H](Cc2ccccc2)C(=O)N[C@@H](CCCCN)C(N)=O)C1=O [Compound 63, His-D-Trp-Ala-(R)-Agl-D-Phe-Lys-NH2]	–
> 10	38.2	C[C@H](NC(=O)[C@@H](Cc1c[nH]c2ccccc12)NC(=O)[C@@H](N)Cc1c[nH]cn1)C(=O)N[C@@H](Cc1c[nH]c2ccccc12)C(=O)N[C@@H]1CCN([C@@H](CCCCN)C(N)=O)C1=O [Compound 64, His-D-Trp-Ala-Trp-(R)-Agl-Lys-NH2] (H-H[dW]AW-X6)	reduction of CD36 binding affinity, factor compared with hexarelin (CD36): 10
> 10	53.5	C[C@H](NC(=O)[C@@H](Cc1c[nH]c2ccccc12)NC(=O)[C@@H](N)Cc1c[nH]cn1)C(=O)N[C@@H]1CC(=O)N([C@H](Cc2ccccc2)C(=O)N[C@@H](CCCCN)C(N)=O)C1 [Compound 69, His-D-Trp-Ala-(R)-Bgl-D-Phe-Lys-NH2] (H-H[dW]A[X5]K-NH2)	reduction of CD36 binding affinity, factor compared with hexarelin (CD36): 10
> 10	> 10	C[C@H](NC(=O)[C@@H](Cc1c[nH]c2ccccc12)NC(=O)[C@@H](N)Cc1c[nH]cn1)C(=O)N[C@@H](Cc1c[nH]c2ccccc12)C(=O)N[C@@H]1CC(=O)N([C@@H](CCCCN)C(N)=O)C1 [Compound 70, His-D-Trp-Ala-Trp-(R)-Bgl-Lys-NH2] (H-H[dW]AW-X8)	–

Further lines, the compound ahead of its results:

Compound	IC50 (GHS-R1a receptor) [µM]	IC50 (CD36) [µM]	further results
COC(=O)C[C@H]1COS(=O)(=O)N1C(=O)OCC1c2ccccc2-c2ccccc21 [(4S)-17, (4S)-Methyl-2-[3-(9-fluorenylmethoxycarbonyl)-2,2-dioxo-1,2,3-oxathiazolidin-4-yl]acetate]	–	–	melting point: 138 to 140 °C
CC(C)C[C@@H](NC(=O)[C@@H](CCC(=O)O)NC(=O)[C@H](NC(=O)[C@H](NC(=O)[C@@H](Cc1ccc(O)cc1)N1CC[C@@H](N)C1=O)[C@@H](C)O)C(C)C)C(=O)N[C@H](C)C(N)=O [Compound 54, (R)-Agl-D-Tyr-D-Thr-D-Val-D-Glu-D-Leu-D-Ala-NH2] (X11-[d(aThr)][dV][dE][dL][dA]-NH2)	–	–	increase in efficacy compared to 101.10, inhibition of IL-1 induced TF-1 proliferation (TF-1 cells; [1]): 2.2 fold
CC(C)C[C@@H](NC(=O)[C@@H](CCC(=O)O)NC(=O)[C@@H](C(C)C)N1CC[C@@H](NC(=O)[C@@H](Cc2ccc(O)cc2)NC(=O)[C@H](N)CCCNC(=N)N)C1=O)C(=O)N[C@H](C)C(N)=O [Compound 56, D-Arg-D-Tyr-(R)-Agl-D-Val-D-Glu-D-Leu-D-Ala-NH2]	–	–	inhibition of IL-1 induced TF-1 proliferation (in words) (TF-1 cells; [1]): failed to block proliferation
C[C@@H](C(=O)N[C@@H](Cc1c[nH]c2ccccc12)C(=O)N[C@H](Cc1ccccc1)C(=O)N[C@@H](CCCCN)C(N)=O)N1CC[C@@H](NC(=O)[C@@H](N)Cc2c[nH]cn2)C1=O [Compound 61, His-(R)-Agl-Ala-Trp-D-Phe-Lys-NH2]	> 10	> 10	–
CC(C)C[C@@H](NC(=O)[C@@H](CCC(=O)O)NC(=O)[C@H](NC(=O)[C@@H]([C@@H](C)O)N1C[C@H](NC(=O)[C@H](N)CCCNC(=N)N)CC1=O)C(C)C)C(=O)N[C@H](C)C(N)=O [Compound 76, D-Arg-(R)-Bgl-D-Thr-D-Val-D-Glu-D-Leu-D-Ala-NH2] (H-[dR][X13][dV][dE][dL][dA]-NH2)	–	–	increase in efficacy compared to 101.10, inhibition of IL-1 induced TF-1 proliferation (TF-1 cells; [1]): 1.7 fold
CC(C)C[C@@H](NC(=N)[C@@H](CCC(=O)O)N1C[C@H](NC(=O)[C@H](NC(=O)[C@@H](Cc2ccc(O)cc2)NC(=O)[C@H](N)CCCNC(=N)N)[C@@H](C)O)CC1=O)C(=O)N[C@H](C)C(N)=O [Compound 78, D-Arg-D-Tyr-D-Thr-(R)-Bgl-D-Glu-D-Leu-D-Ala-NH2] (H-[dR][dY][d(aThr)][X12][dA]-NH2)	–	–	increase in efficacy compared to 101.10, inhibition of IL-1 induced TF-1 proliferation (TF-1 cells; [1]): 2.4 fold
D-Arg-D-Tyr-(S)-Agl-D-Val-D-Glu-D-Leu-D-Ala-NH2 [Compound 93]	–	–	percentage of proliferation of TF-1 cells pre-treated with peptide (TF-1 cells): 150%
D-Arg-D-Tyr-D-Thr-(S)-Agl-D-Glu-D-Leu-D-Ala-NH2 [Compound 94]	–	–	percentage of proliferation of TF-1 cells pre-treated with peptide (TF-1 cells): 132%
